From patent US12590083B2, “Inhibitors of spinster homolog 2 (SPNS2) for use in therapy” (University of Virginia Patent Foundation, priority 2019, dated 2026)
pIC50: −log10 of the molar value. Structures can show the parent of a compound that is named as a salt.

Molecular target: T1, human SPNS2 (Homo sapiens, UniProt Q8IVW8)
T1 construct: expressed in transfected cells; host or cells: Saccharomyces cerevisiae strain with forced expression of a mammalian SphK and human SPNS2
T1 sequence (Q8IVW8 1-549): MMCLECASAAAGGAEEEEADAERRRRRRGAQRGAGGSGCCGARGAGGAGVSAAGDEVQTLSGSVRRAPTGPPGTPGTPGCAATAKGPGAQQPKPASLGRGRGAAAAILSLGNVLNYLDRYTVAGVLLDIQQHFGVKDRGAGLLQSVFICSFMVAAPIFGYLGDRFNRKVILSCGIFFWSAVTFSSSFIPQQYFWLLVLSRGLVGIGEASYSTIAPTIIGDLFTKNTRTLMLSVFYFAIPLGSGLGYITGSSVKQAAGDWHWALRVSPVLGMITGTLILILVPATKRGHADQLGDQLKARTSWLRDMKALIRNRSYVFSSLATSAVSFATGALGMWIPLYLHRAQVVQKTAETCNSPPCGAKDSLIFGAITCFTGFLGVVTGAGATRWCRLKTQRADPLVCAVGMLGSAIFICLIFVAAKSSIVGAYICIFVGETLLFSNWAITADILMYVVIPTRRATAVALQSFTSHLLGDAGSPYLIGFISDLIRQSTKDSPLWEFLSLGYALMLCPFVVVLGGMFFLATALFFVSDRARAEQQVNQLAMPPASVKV
Test: S1P transporter assay: growth of S. cerevisiae strain with forced expression of a mammalian SphK and human SPNS2
Assay type: cell-based
Conditions: in vitro inhibition of SPNS2; growth of S. cerevisiae strain expressing mammalian SphK and human SPNS2; compounds as their pharmaceutical salts
Description: Transporter assays are vectorial and, therefore, require measurement of the transported analyte in different compartments. The assay of S1P transporters is problematic because S1P is exported, but not imported, by SPNS2, which obviates measuring uptake of mass- or radio-labeled S1P into transporter-expressing cells.
To assay for SPNS2 inhibitor hits, we took advantage of the growth inhibitory effects of excessive levels of phosphorylated Long Chain Base (phospho-LCB) levels on the budding yeast, S. cerevisiae (Kharel Y, et al. Saccharomyces cerevisiae as a platform for assessing sphingolipid lipid kinase inhibitors. PLoS One 13, e0192179 (2018) PMC5908134). Yeast lack the desaturase that converts dihydroceramide to ceramide and, therefore, have neither sphingosine nor S1P. Rather, yeast have the reduced form, dihydrosphingosine, and the 4-hydroxyl analog, phytosphingosine and their respective phosphates. Like all eukaryotes, the yeast synthesizes (via LCB kinases (SphKs)) and degrades (via phospho-LCB lyase and phosphatase) phospho-LCBs, (dhS1P, phytoS1P). Yeast lack phospho-LCB transporters such as SPNS2, which are found only in vertebrates. To assess inhibition of SPNS2 in vitro, we used a strain of S. cerevisiae wherein expression of a mammalian SphK and human SPNS2 were forced. SPNS2 inhibitors decrease the growth of this strain. Table 2 below presents in vitro inhibition data against SPNS2 for exemplary compounds, presented here as their pharmaceutical salts, of the disclosure (A≤2 μM, B>2 μM).

SMILES	pIC50
CCCCCCCCCCCc1ccc(-c2noc(C3CNC3)n2)cc1 [Compound 5a, 5-(azetidin-3-yl)-3-(4-undecylphenyl)-1,2,4-oxadiazole 2,2,2-trifluoroacetate]	< 5.70
CCCCCCCOc1ccc2cc(-c3noc([C@@H]4CCNC4)n3)ccc2c1 [Compound 5aa, (R)-3-(6-(heptyloxy)naphthalen-2-yl)-5-(pyrrolidin-3-yl)-1,2,4-oxadiazole hydrochloride]	≥ 5.70
CCCCCCCCCCc1ccc(-c2noc([C@H]3CCNC3)n2)cc1 [Compound 5e, (S)-3-(3-(4-decylphenyl)-1,2,4-oxadiazol-5-yl)pyrrolidin-1-ium 2,2,2-trifluoroacetate]	< 5.70
CCCCCCCCCCc1ccc(-c2noc([C@H]3CCCNC3)n2)cc1 [Compound 5f, (S)-3-(3-(4-decylphenyl)-1,2,4-oxadiazol-5-yl)piperidin-1-ium 2,2,2-trifluoroacetate]	< 5.70
CCCCCCCCCCc1ccc(-c2noc([C@@H]3CCNC3)n2)cc1 [Compound 5g, (R)-3-(3-(4-decylphenyl)-1,2,4-oxadiazol-5-yl)pyrrolidin-1-ium 2,2,2-trifluoroacetate]	< 5.70
CCCCCCCCCCc1ccc(-c2noc([C@@H]3CCCNC3)n2)cc1 [Compound 5h, (R)-3-(3-(4-decylphenyl)-1,2,4-oxadiazol-5-yl)piperidin-1-ium 2,2,2-trifluoroacetate]	< 5.70
CCCCCCCCCCc1ccc(-c2noc(CC3CNC3)n2)cc1 [Compound 5j, 5-(azetidin-3-ylmethyl)-3-(4-decylphenyl)-1,2,4-oxadiazole 2,2,2-trifluoroacetate]	≥ 5.70
CCCCCCCCCCc1ccc(-c2noc(C[C@H]3CCNC3)n2)cc1 [Compound 5l, (R)-3-(4-decylphenyl)-5-(pyrrolidin-3-ylmethyl)-1,2,4-oxadiazole 2,2,2-trifluoroacetate]	≥ 5.70
CCCCCCCCCCc1ccc(-c2noc(C[C@@H]3CCNC3)n2)cc1 [Compound 5p, (S)-3-(4-decylphenyl)-5-(pyrrolidin-3-ylmethyl)-1,2,4-oxadiazole 2,2,2-trifluoroacetate]	≥ 5.70
CCCCCCCCCCc1ccc(-c2noc(C[C@@H]3CCCNC3)n2)cc1 [Compound 5q, (S)-3-(4-decylphenyl)-5-(piperidin-3-ylmethyl)-1,2,4-oxadiazole 2,2,2-trifluoroacetate]	≥ 5.70
CCCCCCCCCCCc1ccc(-c2noc(C3CN(C(=N)N)C3)n2)cc1 [Compound 7a, 3-(3-(4-undecylphenyl)-1,2,4-oxadiazol-5-yl)azetidine-1-carboximidamide hydrochloride]	< 5.70
CCCCCCCCCCc1ccc(-c2noc(C3CN(C(=N)N)C3)n2)cc1 [Compound 7b, 3-(3-(4-decylphenyl)-1,2,4-oxadiazol-5-yl)azetidine-1-carboximidamide hydrochloride]	≥ 5.70
CCCCCCCCCc1ccc(-c2noc(C3CN(C(=N)N)C3)n2)cc1 [Compound 7c, 3-(3-(4-nonylphenyl)-1,2,4-oxadiazol-5-yl)azetidine-1-carboximidamide hydrochloride]	≥ 5.70
CCCCCCCCc1ccc(-c2noc(C3CN(C(=N)N)C3)n2)cc1 [Compound 7d, 3-(3-(4-octylphenyl)-1,2,4-oxadiazol-5-yl)azetidine-1-carboximidamide hydrochloride]	< 5.70
CCCCCCCCCCc1ccc(-c2noc([C@H]3CCN(C(=N)N)C3)n2)cc1 [Compound 7e, (S)-amino(3-(3-(4-decylphenyl)-1,2,4-oxadiazol-5-yl)pyrrolidin-1-yl)methaniminium chloride]	< 5.70
CCCCCCCCCCc1ccc(-c2noc([C@H]3CCCN(C(=N)N)C3)n2)cc1 [Compound 7f, (S)-amino(3-(3-(4-decylphenyl)-1,2,4-oxadiazol-5-yl)piperidin-1-yl)methaniminium chloride]	≥ 5.70
CCCCCCCCCCc1ccc(-c2noc([C@@H]3CCN(C(=N)N)C3)n2)cc1 [Compound 7g, (R)-amino(3-(3-(4-decylphenyl)-1,2,4-oxadiazol-5-yl)pyrrolidin-1-yl)methaniminium chloride]	< 5.70
CCCCCCCCCCc1ccc(-c2noc([C@@H]3CCCN(C(=N)N)C3)n2)cc1 [Compound 7h, (R)-amino(3-(3-(4-decylphenyl)-1,2,4-oxadiazol-5-yl)piperidin-1-yl)methaniminium chloride]	< 5.70
CCCCCCCCCCc1ccc(-c2noc(CC3CN(C(=N)N)C3)n2)cc1 [Compound 7i]	≥ 5.70
CCCCCCCOc1ccc2cc(-c3noc([C@@H]4CCN(C(=N)N)C4)n3)ccc2c1 [Compound 7kk, (R)-3-(3-(6-(heptyloxy)naphthalen-2-yl)-1,2,4-oxadiazol-5-yl)pyrrolidine-1-carboximidamide hydrochloride]	≥ 5.70
CCCCCCCCCCc1ccc(-c2noc(C[C@@H]3CCN(C(=N)N)C3)n2)cc1 [Compound 7p, (S)-3-((3-(4-decylphenyl)-1,2,4-oxadiazol-5-yl)methyl)pyrrolidine-1-carboximidamide 2,2,2-trifluoroacetate]	≥ 5.70
CCCCCCCCCCc1ccc(-c2noc(C[C@@H]3CCCN(C(=N)N)C3)n2)cc1 [Compound 7q, (S)-3-((3-(4-decylphenyl)-1,2,4-oxadiazol-5-yl)methyl)piperidine-1-carboximidamide 2,2,2-trifluoroacetate]	≥ 5.70
CCCCCCCCCCc1cccc(-c2noc([C@@H]3CCN(C(=N)N)C3)n2)c1 [Compound 7t, (R)-3-(3-(3-decylphenyl)-1,2,4-oxadiazol-5-yl)pyrrolidine-1-carboximidamide hydrochloride]	< 5.70
CCCCCCCCCCCc1ccc(-c2noc([C@@H]3CCN(C(=N)N)C3)n2)cc1 [Compound 7xa, (R)-3-(3-(4-undecylphenyl)-1,2,4-oxadiazol-5-yl)pyrrolidine-1-carboximidamide hydrochloride]	≥ 5.70
CCCCCCCCCc1ccc(-c2noc([C@@H]3CCN(C(=N)N)C3)n2)cc1 [Compound 7xb, (R)-3-(3-(4-nonylphenyl)-1,2,4-oxadiazol-5-yl)pyrrolidine-1-carboximidamide hydrochloride]	≥ 5.70
CCCCCCCCCCCc1ccc(-c2noc([C@@H]3CCCN(C(=N)N)C3)n2)cc1 [Compound 7ya, (R)-3-(3-(4-undecylphenyl)-1,2,4-oxadiazol-5-yl)piperidine-1-carboximidamide hydrochloride]	≥ 5.70
CCCCCCCCCc1ccc(-c2noc([C@@H]3CCCN(C(=N)N)C3)n2)cc1 [Compound 7yb, (R)-3-(3-(4-nonylphenyl)-1,2,4-oxadiazol-5-yl)piperidine-1-carboximidamide hydrochloride]	≥ 5.70
CCCCCCCCCOc1ccc(-c2noc([C@@H]3CCCNC3)n2)cc1C(F)(F)F [Compound 12e]	≥ 5.70
c1cc(N2CCCCC2)ncc1-c1noc([C@@H]2CCNC2)n1 [Compound 13a, (R)-3-(6-(piperidin-1-yl)pyridin-3-yl)-5-(pyrrolidin-3-yl)-1,2,4-oxadiazole hydrochloride]	< 5.70
CCCCCCCCNc1ccc(-c2noc([C@@H]3CCNC3)n2)cn1 [Compound 13b, (R)—N-octyl-5-(5-(pyrrolidin-3-yl)-1,2,4-oxadiazol-3-yl)pyridin-2-amine hydrochloride]	< 5.70
